# From US20260335279A1, “METHODS OF TREATING ISCHEMIA-REPERFUSION INJURIES” (University of Cincinnati, priority 2022, published 2026)
# How the values were obtained:
# [1] = system: myocardial ischemia-reperfusion injury in mice; test: Speckle tracking echocardiography in murine myocardial ischemia-reperfusion injury; assay type: in vivo, mouse (C57BL/6); conditions: 30 min ischemia, 24 h reperfusion; 25 mg/kg/12 h intraperitoneal; vs vehicle
# Experimental: Cardiac function was assessed by transthoracic echocardiography using the VisualSonics Vevo F2 system (VisualSonics, Toronto, ON). Sedation was induced by 3% isoflurane and maintained at 0.5% isoflurane during the procedure, during which the animals were placed on a heated table under a lamp at approximately 37 °C. Parasternal long axis (PSLAX) and short axis (SAX) images were recorded and then analyzed on a separate workstation with VevoLab software (Vevo 2100, v1.6, Visualsonic, Toronto, Canada). From the M-mode images, left ventricular cavity size for systole and diastole (LV dia;s, LV dia;d, LV Vol;s and LV Vol;d) were measured. Heart rate (HR), stroke volume (SV), and the echocardiographic calculation for fractional shortening (FS), ejection fraction (EF) and cardiac output (CO) were obtained using the Vevo software. Treatment and control groups were analyzed on the same day by the same technician in order to minimize variation. For VevoStrain analysis, B-mode images of 300 frames at greater than 200 frames/second were used.
# (§1) The myocardial ischemia/reperfusion surgical protocol was applied as follows. Mice were anesthetized with 2% isoflurane inhalation until anesthesia was achieved. The animals' body temperature was maintained at 37 °C throughout the surgical procedure using a heating pad. A tracheal tube was placed via tracheal intubation and the respiration rate was set at 150 strokes/min with a tidal volume of 200 μL, using Minivent ventilator for mice (Model 845, Harvard Apparatus). A 1.2 cm incision was made over the left chest. After retraction of the pectoral major and minor muscles, the fourth intercostal space was exposed. […] The left anterior descending coronary artery (LAD) was then located, sutured, and ligated at a site 3-4 mm distal to the origin of the artery under the left atrium using a 6-0 silk suture. The heart was allowed to stabilize for 15 min and right after, ischemia was induced by tightening the suture against a small piece of polyethylene tube. At the end of the 30-minute ischemia period, the ligature was released for the induction of reperfusion, and then the manual evacuation of air and closure of muscle and skin were performed. The mouse was then monitored during the recovery period, which was generally completed within 3 to 5 minutes. Sustain-released buprenorphine (BupSR, 0.5 mg/kg body weight) was provided by subcutaneous injection. Mice were then left to recover until the end of the reperfusion (2 hours, 12 hours, 24 hours, or 4 weeks). The sham group underwent the same surgical procedure except that the LAD was not occluded.
# To explore whether KLF5 inhibition holds therapeutic potential against myocardial I/R injury, WT mice were subjected to 30 minutes of ischemia, followed by 24 hours of reperfusion while being treated with a pharmacological KLF5 inhibitor, namely ML264. ML264 (25 mg/kg/12 h) was dissolved in 10% DMSO, 10% Tween 80, and 80% normal saline, and was administered by intraperitoneal injection in mice.
# A first dose of ML264 was administered five minutes before the reopening of the coronary artery, due to the clinical application that this time point holds, as well as previous reports about the importance of this time point regarding the pharmacological possibilities for the cardioprotection against I/R injury. 2D echocardiography was performed after 24 hours of reperfusion.
# cardiac fibrosis in mice = test: Masson's Trichrome staining, cardiac fibrosis in chronic model of I/R injury; assay type: in vivo, mouse (C57BL/6); conditions: 30 min ischemia, 4 weeks reperfusion; two doses of ML264 at early reperfusion
# Experimental: as §1, with “At the end of the 30-minute ischemia period, the ligature was released for the induction of reperfusion, and then the manual evacuation of air and closure of muscle and skin were performed.” left out, “Sustain-released buprenorphine (BupSR, 0.5 mg/kg body weight) was provided by subcutaneous injection. Mice were then left to recover until the end of the reperfusion (2 hours, 12 hours, 24 hours, or 4 weeks). The sham group underwent the same surgical procedure except that the LAD was not occluded.” left out
# Tissue sectioning and Masson's Trichrome staining were performed. […] Fibrotic myocardial tissue size was measured as % area with respect to the total slice area in mouse hearts imaged at 0.8×. […]
# BAX = BAX apoptotic protein in myocardium after I/R (Western blot); assay type: in vivo, mouse (C57BL/6); conditions: ML264-treated group; 30 min ischemia, 2 h reperfusion
# Experimental: The myocardial ischemia/reperfusion surgical protocol was applied as follows. Mice were anesthetized with 2% isoflurane inhalation until anesthesia was achieved. The animals' body temperature was maintained at 37 °C throughout the surgical procedure using a heating pad. A tracheal tube was placed via tracheal intubation and the respiration rate was set at 150 strokes/min with a tidal volume of 200 μL, using Minivent ventilator for mice (Model 845, Harvard Apparatus). A 1.2 cm incision was made over the left chest. After retraction of the pectoral major and minor muscles, the fourth intercostal space was exposed. […] The left anterior descending coronary artery (LAD) was then located, sutured, and ligated at a site 3-4 mm distal to the origin of the artery under the left atrium using a 6-0 silk suture. […] The mouse was then monitored during the recovery period, which was generally completed within 3 to 5 minutes. […]
# Isolated myocardial tissue/isolated primary murine cardiomyocytes were homogenized in radioimmunoprecipitation assay buffer (RIPA buffer) containing protease and phosphatase inhibitors (Thermo Fischer Scientific, Cat. No.: A32959). […] Relative densitometry was determined, and the β-actin protein was used as a loading control.
# In order to unravel the mechanisms of KLF5-mediated cardiotoxicity, oxidative stress levels were evaluated at early reperfusion. […]
# IL-6 = IL-6 mRNA in ischemic myocardium; assay type: in vivo, mouse (C57BL/6); conditions: evaluated at 2 h and 24 h of reperfusion, vs vehicle
# Experimental: (§2) The myocardial ischemia/reperfusion surgical protocol was applied as follows. Mice were anesthetized with 2% isoflurane inhalation until anesthesia was achieved. The animals' body temperature was maintained at 37 °C throughout the surgical procedure using a heating pad. A tracheal tube was placed via tracheal intubation and the respiration rate was set at 150 strokes/min with a tidal volume of 200 μL, using Minivent ventilator for mice (Model 845, Harvard Apparatus). A 1.2 cm incision was made over the left chest. After retraction of the pectoral major and minor muscles, the fourth intercostal space was exposed. […] The mouse was then monitored during the recovery period, which was generally completed within 3 to 5 minutes. […]
# (§3) Total RNA was purified from heart tissue using the TRIzol reagent according to the instructions of the manufacturer (ThermoFischer Scientific, Cat. No.: 15596018). cDNA synthesis was performed using the Applied Biosystems High Capacity cDNA Reverse Transcription Kit (ThermoFischer Scientific, Cat. No.: 4368814) from 500 ng RNA, which had been treated with DNAase I (ThermoFischer Scientific, Cat. No.: 18068015). Quantitative real-time PCR was performed with the SYBR Select Master Mix (ThermoFischer Scientific, Cat. No.: 4472903) using the manufacturer's recommendations. […]
# Glut1 = Glut1 mRNA after I/R; assay type: in vivo, mouse; conditions: ML-264 treatment; vs I/R group treated with vehicle
# Experimental: as §2, §3
smiles,measurement,setting,value
CN(C(=O)CNC(=O)/C=C/c1cccc(Cl)c1)C1CCS(=O)(=O)CC1 [ML264],global circumferential strain,[1],significant increase
same,lateral wall circumferential strain,[1],significant increase
same,lateral wall circumferential strain rate,[1],significant increase
same,lateral wall radial strain,[1],significant increase
same,lateral wall radial strain rate,[1],significant increase
same,fibrotic scar tissue formation,cardiac fibrosis in mice,significant reduction
same,BAX apoptotic proteins,BAX,suppression
same,IL-6 mRNA levels,IL-6,Significant suppression
same,Glut1 levels (mRNA),Glut1,trend towards reduced
